Results: patent US9290788B2, “Device for determining or studying the state of stimulation of the natural defences of plants or portions of plants” (Institut National De La Recherche Agronomique, priority 2010, dated 2016)
Values joined by “and” are separate entries in the source; they are usually repeats but may differ in a detail not shown here. Equal entries are not always repeated.

Experiments:
[1] = system: fire blight (Erwinia amylovora); details: Test 1, controlled conditions
[2] = system: 28 target genes (defense genes) in apple tree leaves; test: Test 1: relative expression of the 28 defense genes (qPCR, ΔΔCt) in apple tree seedling leaves subjected to NDS treatments and abiotic stresses; type: in vivo, apple tree seedlings (Golden Delicious); details: for effect on the modulation of target gene expression (in words): Test 1; for Relative expression of ANS / Relative expression of PAL / Relative expression of PR-15 / Relative expression of PR-1 / Relative expression of PR-5 / Relative expression of PR-2 / Relative expression of PR-4 / Relative expression of PR-8 / Relative expression of PR-14: vs water control
[3] = system: 28 target genes (defense genes) in apple tree leaves; test: Test 2: analysis of defenses, expression of the 28 genes (qPCR) in apple tree seedlings sprayed with 10 NDS candidates, with or without hydrogen peroxide; type: in vivo, apple tree seedlings (Golden Delicious)
[4] = +H2O2, J2, relative to water control
[5] = +H2O2, J3, relative to water control
[6] = +H2O2 (sprayed 24 hours after treatment), J2
[7] = +H2O2 (sprayed 24 hours after treatment), J3
[8] = −H2O2, J2, relative to water control
[9] = −H2O2, J3, relative to water control
[10] = abiotic stress, J2, relative to water control
[11] = abiotic stress, J3, relative to water control
[12] = abiotic stress, J1, relative to water control

## CC(N)CC(=O)O (racemic) [Baba, DL-β-amino-n-butyric acid]
[1]
  protection against fire blight: no protective effect against fire blight
[2]; [4]
  Relative expression APOX (log base 2): 1.49 and 1.76
  Relative expression JAR (log base 2): −0.44 and −0.16
  Relative expression POX (log base 2): 2.20 and 2.28
[2]; [5]
  Relative expression CAD (log base 2): −0.15 and −0.29
  Relative expression CalS (log base 2): 2.10 and 1.88
[2]; H2O2 sprayed 24 hours after treatment
  direct stimulator versus potentiator: gene expression after additional H2O2 treatment: triggers the expression of some genes (POX, Pect, for example)
[2]
  effect on the modulation of target gene expression (in words): little effect on the modulations of genes
[2]; [6]
  Relative expression of ANS: 1.41 log2 and 2.12 log2
  Relative expression of PAL: 0.29 log2 and 0.55 log2
  Relative expression of PR-15: 0.84 log2 and 0.71 log2
[2]; [7]
  Relative expression of PR-1: 2.71 log2 and 1.77 log2
  Relative expression of PR-5: 1.91 log2 and 1.34 log2
  Relative expression of PR-15: 1.46 log2 and 2.06 log2
[2]; −H2O2, J2
  Relative expression of ANS: 1.28 log2 and 1.53 log2
  Relative expression of PAL: 0.42 log2 and 0.27 log2
[2]; −H2O2, J3
  Relative expression of PAL: 0.20 log2 and 0.29 log2
[2]; [8]
  Relative expression CHS (log base 2): 0.27 and 0.29
  Relative expression DFR (log base 2): 0.64 and 0.93
  Relative expression GST (log base 2): −0.05 and −0.34
[2]; [9]
  Relative expression CHS (log base 2): 0.19 and 0.31
  Relative expression FPPS (log base 2): 0.46 and 0.56

## OO [H2O2, hydrogen peroxide]
[3]; J2 + H2O2
  ANS expression: −0.63
  CHS expression: −0.80
  DFR expression: −0.65
  FPPS expression: 0.06
  HMGR expression: 1.05
  PAL expression: −0.56
  PPO expression: 1.20
  PR1 expression: 0.85
  PR2 expression: 3.69
  PR4 expression: 3.89
  PR5 expression: 0.91
  PR8 expression: 2.12
  PR14 expression: 1.32
  PR15 expression: −0.26
[3]; J3 + H2O2
  ANS expression: −0.49
  CHS expression: −0.75
  DFR expression: −0.36
  FPPS expression: 0.08
  HMGR expression: 0.14
  PAL expression: −0.57
  PPO expression: 0.71
  PR1 expression: 1.41
  PR2 expression: 4.05
  PR4 expression: 2.59
  PR5 expression: 1.73
  PR8 expression: 1.73
  PR14 expression: 3.29
  PR15 expression: 1.57
[2]
  effect on the modulation of target gene expression (in words): only slightly modulate the target gene expressions
[2]; [10]
  Relative expression APOX (log base 2): 0.41 and 0.38
  Relative expression DFR (log base 2): 0.50 and 0.80
  Relative expression EIN3 (log base 2): 1.44 and 1.53
  Relative expression POX (log base 2): 1.07 and 1.06
  Relative expression WRKY (log base 2): −0.04 and −0.12
[2]; [11]
  Relative expression CAD (log base 2): −0.72 and −0.54
  Relative expression GST (log base 2): 0.33 and 0.40
  Relative expression LOX2 (log base 2): 0.16 and 0.42
[2]; abiotic stress treatment, J2
  Relative expression of PR-2: 4.75 log2 and 3.92 log2
  Relative expression of PR-4: 2.53 log2 and 4.27 log2
  Relative expression of PR-8: 0.83 log2 and 0.79 log2
[2]; abiotic stress treatment, J3
  Relative expression of PR-2: 2.36 log2 and 3.38 log2

## OO [H202]
[3]; J2 + H2O2
  ACCO expression: 0.60
  APOX expression: −0.37
  CAD expression: −0.32
  CSL expression: 2.28
  CalS expression: −0.31
  EDS1 expression: 1.12
  EIN3 expression: −0.20
  FAR expression: 1.07
  GST expression: 0.21
  JAR expression: −0.62
  LOX2 expression: −0.39
  PECT expression: 0.01
  POX expression: 2.12
  WRKY expression: 1.42
[3]; J3 + H2O2
  ACCO expression: 0.37
  APOX expression: 0.36
  CAD expression: 0.30
  CSL expression: 1.32
  CalS expression: 0.04
  EDS1 expression: 1.44
  EIN3 expression: 0.33
  FAR expression: 0.12
  GST expression: 0.30
  JAR expression: 0.09
  LOX2 expression: −0.03
  PECT expression: 1.53
  POX expression: 1.61
  WRKY expression: 1.27

## C[n+]1ccc(-c2cc[n+](C)cc2)cc1 [Paraquat, paraquat dichloride x-hydrate]
[2]
  effect on the modulation of target gene expression (in words): strongly activates some genes
[2]; [12]
  Relative expression ACCO (log base 2): −1.33
  Relative expression APOX (log base 2): 0.00
  Relative expression CAD (log base 2): 0.04
  Relative expression CHS (log base 2): −1.56
  Relative expression CSL (log base 2): 2.29
  Relative expression CalS (log base 2): 0.00
  Relative expression DFR (log base 2): −0.74
  Relative expression EDS1 (log base 2): 0.83
  Relative expression EIN3 (log base 2): 0.00
  Relative expression FPPS (log base 2): 1.02
  Relative expression Far (log base 2): 2.76
  Relative expression GST (log base 2): 1.99
  Relative expression HMGR (log base 2): 2.85
  Relative expression JAR (log base 2): 0.00
  Relative expression LOX2 (log base 2): −0.58
  Relative expression POX (log base 2): 0.00
  Relative expression PPO (log base 2): 0.67
  Relative expression Pect (log base 2): 0.00
  Relative expression WRKY (log base 2): 4.01
[2]; [10]
  Relative expression ACCO (log base 2): 0.02
  Relative expression APOX (log base 2): 2.01
  Relative expression CAD (log base 2): 0.27
  Relative expression CHS (log base 2): −1.49
  Relative expression CSL (log base 2): 4.42
  Relative expression CalS (log base 2): 0.42
  Relative expression DFR (log base 2): −1.14
  Relative expression EDS1 (log base 2): 2.89
  Relative expression EIN3 (log base 2): 0.21
  Relative expression FPPS (log base 2): 0.15
  Relative expression Far (log base 2): 2.30
  Relative expression GST (log base 2): 1.83
  Relative expression HMGR (log base 2): 1.20
  Relative expression JAR (log base 2): −0.81
  Relative expression LOX2 (log base 2): −0.54
  Relative expression POX (log base 2): 4.26
  Relative expression PPO (log base 2): 6.27
  Relative expression Pect (log base 2): 2.17
  Relative expression WRKY (log base 2): 6.37
[2]; [11]
  Relative expression ACCO (log base 2): 0.41
  Relative expression APOX (log base 2): 1.48
  Relative expression CAD (log base 2): −0.51
  Relative expression CHS (log base 2): −2.04
  Relative expression CSL (log base 2): 5.43
  Relative expression CalS (log base 2): 0.01
  Relative expression DFR (log base 2): −2.09
  Relative expression EDS1 (log base 2): 2.28
  Relative expression EIN3 (log base 2): −0.11
  Relative expression FPPS (log base 2): −1.83
  Relative expression Far (log base 2): 1.85
  Relative expression GST (log base 2): 0.80
  Relative expression HMGR (log base 2): −0.24
  Relative expression JAR (log base 2): −2.46
  Relative expression LOX2 (log base 2): −2.37
  Relative expression POX (log base 2): −0.53
  Relative expression PPO (log base 2): 4.63
  Relative expression Pect (log base 2): −2.82
  Relative expression WRKY (log base 2): 2.76
[2]; abiotic stress treatment, J1
  Relative expression of ANS: 0.00 log2
  Relative expression of PAL: 1.99 log2
  Relative expression of PR-1: 0.55 log2
  Relative expression of PR-2: 4.09 log2
  Relative expression of PR-4: 7.10 log2
  Relative expression of PR-5: 0.00 log2
  Relative expression of PR-8: 0.00 log2
  Relative expression of PR-14: 2.61 log2
  Relative expression of PR-15: 0.00 log2
[2]; abiotic stress treatment, J2
  Relative expression of ANS: −2.09 log2
  Relative expression of PAL: 2.56 log2
  Relative expression of PR-1: 3.00 log2
  Relative expression of PR-2: 5.88 log2
  Relative expression of PR-4: 6.93 log2
  Relative expression of PR-5: −3.05 log2
  Relative expression of PR-8: 5.12 log2
  Relative expression of PR-14: 6.04 log2
  Relative expression of PR-15: 4.77 log2
[2]; abiotic stress treatment, J3
  Relative expression of ANS: −0.78 log2
  Relative expression of PAL: 0.66 log2
  Relative expression of PR-1: 0.54 log2
  Relative expression of PR-2: 2.53 log2
  Relative expression of PR-4: 6.63 log2
  Relative expression of PR-5: −8.56 log2
  Relative expression of PR-8: 5.36 log2
  Relative expression of PR-14: 1.28 log2
  Relative expression of PR-15: −0.34 log2
